# Patent publication US20210300940A1 (Merck Patent GmbH, priority 2018, published 2021)
# Experiments:
# TLR7 = biological target: T1, TLR7 (Homo sapiens, UniProt Q9NYK1); experiment: HEK/293 TLR7 Cell Assay; format: cell-based; conditions: TLR7/NFKb HEK cells, R848 agonist 10 uM final concentration, Steady-Glo readout; read-out: TLR7 potency
# T1 construct: expressed in transfected cells; host or cells: HEK/293 cells carrying TLR7 and an NF-kB luciferase reporter
# T1 sequence (Q9NYK1 27-1049): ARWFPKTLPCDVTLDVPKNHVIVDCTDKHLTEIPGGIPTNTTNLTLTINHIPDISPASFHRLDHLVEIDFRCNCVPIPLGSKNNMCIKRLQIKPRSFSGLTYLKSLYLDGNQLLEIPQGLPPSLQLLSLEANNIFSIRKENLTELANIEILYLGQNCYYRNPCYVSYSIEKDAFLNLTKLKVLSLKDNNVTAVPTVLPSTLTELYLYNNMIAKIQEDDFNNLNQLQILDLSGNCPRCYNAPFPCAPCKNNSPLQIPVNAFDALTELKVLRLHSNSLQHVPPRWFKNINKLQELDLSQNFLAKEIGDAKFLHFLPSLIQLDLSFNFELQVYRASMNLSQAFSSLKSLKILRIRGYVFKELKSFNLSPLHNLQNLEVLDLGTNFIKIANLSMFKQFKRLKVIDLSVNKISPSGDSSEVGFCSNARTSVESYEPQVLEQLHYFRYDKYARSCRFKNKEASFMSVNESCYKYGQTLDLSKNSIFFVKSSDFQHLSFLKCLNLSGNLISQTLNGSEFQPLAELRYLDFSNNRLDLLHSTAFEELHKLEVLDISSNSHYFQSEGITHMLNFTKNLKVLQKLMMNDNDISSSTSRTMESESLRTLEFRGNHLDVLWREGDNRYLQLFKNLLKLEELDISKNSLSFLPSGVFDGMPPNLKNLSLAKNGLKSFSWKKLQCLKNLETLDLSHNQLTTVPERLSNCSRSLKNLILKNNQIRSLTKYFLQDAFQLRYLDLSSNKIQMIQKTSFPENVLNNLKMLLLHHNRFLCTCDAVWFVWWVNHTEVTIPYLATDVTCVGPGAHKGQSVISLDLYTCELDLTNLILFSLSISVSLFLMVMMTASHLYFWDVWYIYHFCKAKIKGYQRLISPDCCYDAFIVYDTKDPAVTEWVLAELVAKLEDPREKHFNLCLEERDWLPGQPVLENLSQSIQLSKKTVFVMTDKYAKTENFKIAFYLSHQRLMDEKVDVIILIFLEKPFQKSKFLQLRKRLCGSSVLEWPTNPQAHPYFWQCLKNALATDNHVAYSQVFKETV
# How it was run: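 Compounds added to HEK cells expressing TLR7 with an NFκB reporter 30 min ahead of 10 uM R848 challenge; luciferase signal (Steady-Glo) measured after 5 h, cells having been seeded 24 h earlier at 5000 per well.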
# TLR8 = biological target: T2, TLR8 (Homo sapiens, UniProt Q9NR97); experiment: HEK/293 TLR8 Cell Assay; format: cell-based; conditions: HEK cells, R848 agonist 30 uM final concentration, Steady-Glo readout; read-out: TLR8 potency
# T2 construct: expressed in transfected cells; host or cells: HEK/293 reporter cells (NF-kB luciferase)
# T2 sequence (Q9NR97 27-1041): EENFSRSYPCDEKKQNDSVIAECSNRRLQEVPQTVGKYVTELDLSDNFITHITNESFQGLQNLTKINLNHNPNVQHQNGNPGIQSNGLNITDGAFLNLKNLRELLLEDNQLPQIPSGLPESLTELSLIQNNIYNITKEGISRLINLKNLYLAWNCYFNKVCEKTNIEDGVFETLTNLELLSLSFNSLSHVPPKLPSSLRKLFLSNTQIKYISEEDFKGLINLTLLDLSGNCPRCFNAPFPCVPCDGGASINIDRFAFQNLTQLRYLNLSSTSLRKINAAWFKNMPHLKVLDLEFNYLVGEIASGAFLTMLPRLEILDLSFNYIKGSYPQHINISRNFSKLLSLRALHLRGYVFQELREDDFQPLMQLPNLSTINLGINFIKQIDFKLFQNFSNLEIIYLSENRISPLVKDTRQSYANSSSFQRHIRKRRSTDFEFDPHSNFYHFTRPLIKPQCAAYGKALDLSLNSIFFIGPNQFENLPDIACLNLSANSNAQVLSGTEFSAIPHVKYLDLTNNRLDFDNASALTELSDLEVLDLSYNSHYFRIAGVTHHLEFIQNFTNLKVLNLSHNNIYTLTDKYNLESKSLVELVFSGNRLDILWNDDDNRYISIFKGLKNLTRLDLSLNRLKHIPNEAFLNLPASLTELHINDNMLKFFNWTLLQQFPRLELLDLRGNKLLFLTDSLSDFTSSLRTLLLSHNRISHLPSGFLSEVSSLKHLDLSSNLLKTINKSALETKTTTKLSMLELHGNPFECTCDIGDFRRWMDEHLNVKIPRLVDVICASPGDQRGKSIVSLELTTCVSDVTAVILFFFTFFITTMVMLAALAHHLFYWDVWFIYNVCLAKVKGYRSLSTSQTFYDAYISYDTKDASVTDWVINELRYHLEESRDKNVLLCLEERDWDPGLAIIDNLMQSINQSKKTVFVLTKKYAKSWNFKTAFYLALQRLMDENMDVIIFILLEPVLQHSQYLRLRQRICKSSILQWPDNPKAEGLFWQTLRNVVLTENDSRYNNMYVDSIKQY
Structure (SMILES),IC50 (TLR7) [nM],IC50 (TLR8) [nM]
"Cc1c(F)cc(N2C[C@@H](C)C[C@@H](NC(=O)[C@@H](N)[C@@H](C)O)C2)c2cccnc12 [Example 134, (2S,3R)-2-Amino-N-[(3R,5S)-1-(7-fluoro-8-methyl-quinolin-5-yl)-5-methyl-piperidin-3-yl]-3-hydroxy-butyramide]",75 to 150,75 to 150
"Cc1c(F)cc(N2C[C@@H](C)C[C@@H](NC(=O)[C@H](N)CO)C2)c2cccnc12 [Example 135, (R)-2-Amino-N-[(3R,5S)-1-(7-fluoro-8-methyl-quinolin-5-yl)-5-methyl-piperidin-3-yl]-3-hydroxy-propionamide]",< 75,< 75
"Cc1ncc(N2C[C@H](NC(=O)CC3CCNCC3F)C[C@H](C(F)(F)F)C2)c2cccnc12 (stereo partly drawn) [Example 136, 2-(3-Fluoro-piperidin-4-yl)-N-[(3R,5S)-1-(8-methyl-[1,7]naphthyridin-5-yl)-5-trifluoromethyl-piperidin-3-yl]-acetamide]",75 to 150,< 75
"Cc1ncc(N2C[C@H](NC(=O)C(F)C3CCNC3)C[C@H](C(F)(F)F)C2)c2cccnc12 (stereo partly drawn) [Example 137, 2-Fluoro-N-[(3R,5S)-1-(8-methyl-[1,7]naphthyridin-5-yl)-5-trifluoromethyl-piperidin-3-yl]-2-pyrrolidin-3-yl-acetamide]",< 75,< 75
"N#Cc1ccc(N2C[C@H](NC(=O)CC3CCNCC3F)C[C@H](C(F)(F)F)C2)c2cccnc12 (stereo partly drawn) [Example 138, N-[(3R,5S)-1-(8-Cyano-quinolin-5-yl)-5-trifluoromethyl-piperidin-3-yl]-2-(3-fluoro-piperidin-4-yl)-acetamide]",< 75,< 75
"CN(C)CCNC(=O)N[C@@H]1C[C@H](C(F)(F)F)CN(c2ccc(C#N)c3nccnc23)C1 [Example 139, 1-[(3R,5S)-1-(8-cyanoquinoxalin-5-yl)-5-(trifluoromethyl)piperidin-3-yl]-3-[2-(dimethylamino)ethyl]urea]",75 to 150,75 to 150
"C[C@H]1C[C@@H](NC(=O)NCCN(C)C)CN(c2ccc(C#N)c3nccnc23)C1 [Example 140, 1-[(3R,5S)-1-(8-cyanoquinoxalin-5-yl)-5-methylpiperidin-3-yl]-3-[2-(dimethylamino)ethyl]urea]",< 75,< 75
"CN(C)CCNC(=O)N[C@@H]1C[C@H](C(F)(F)F)CN(c2ccc(C#N)c3ncccc23)C1 [Example 143, 1-[(3R,5S)-1-(8-cyanoquinolin-5-yl)-5-(trifluoromethyl)piperidin-3-yl]-3-[2-(dimethylamino)ethyl]urea]",< 75,75 to 150
"C[C@H]1C[C@@H](NC(=O)CN(CCN)CCO)CN(c2ccc(C#N)c3nccnc23)C1 [Example 150, 2-[(2-Amino-ethyl)-(2-hydroxy-ethyl)-amino]-N-[(3R,5S)-1-(8-cyano-quinoxalin-5-yl)-5-methyl-piperidin-3-yl]-acetamide]",< 75,< 75
"N#Cc1ccc(N2C[C@H](NCC3CCCNC3)C[C@H](C(F)(F)F)C2)c2cccnc12 (stereo partly drawn) [Example 152, 5-{(3R,5S)-3-[(Piperidin-3-ylmethyl)-amino]-5-trifluoromethyl-piperidin-1-yl}-quinoline-8-carbonitrile]",75 to 150,75 to 150

# Now from value to molecule:
IC50 (TLR7) [nM],IC50 (TLR8) [nM],Structure (SMILES)
< 75,< 75,"C[C@H]1C[C@@H](NC(=O)NCCN(C)C)CN(c2ccc(C(F)(F)F)c3nccnc23)C1 [Example 141, 3-[2-(dimethylamino)ethyl]-1-[(3R,5S)-5-methyl-1-[8-(trifluoromethyl)quinoxalin-5-yl]piperidin-3-yl]urea]"
75 to 150,75 to 150,"CN(C)CCNC(=O)N[C@@H]1C[C@H](C(F)(F)F)CN(c2ccc(C(F)(F)F)c3nccnc23)C1 [Example 142, 3-[2-(dimethylamino)ethyl]-1-[(3R,5S)-5-(trifluoromethyl)-1-[8-(trifluoromethyl)quinoxalin-5-yl]piperidin-3-yl]urea]"
75 to 150,< 75,"CN(C)CCNC(=O)N[C@@H]1C[C@H](C(F)(F)F)CN(c2ccc(C(F)(F)F)c3ncccc23)C1 [Example 144, 3-[2-(dimethylamino)ethyl]-1-[(3R,5S)-5-(trifluoromethyl)-1-[8-(trifluoromethyl)quinolin-5-yl]piperidin-3-yl]urea]"
< 75,< 75,"Cc1c(F)cc(N2C[C@@H](C)C[C@@H](NC(=O)NCCN(C)C)C2)c2cccnc12 [Example 145, 3-[2-(dimethylamino)ethyl]-1-[(3R,5S)-1-(7-fluoro-8-methylquinolin-5-yl)-5-methylpiperidin-3-yl]urea]"
> 150,< 75,"C[C@H]1C[C@@H](NC(=O)N[C@@H]2CCCNC2)CN(c2ccc(C(F)(F)F)c3ncccc23)C1 [Example 146, 3-[(3R,5S)-5-methyl-1-[8-(trifluoromethyl)quinolin-5-yl]piperidin-3-yl]-1-[(3R)-piperidin-3-yl]urea]"
> 150,< 75,"C[C@H]1C[C@@H](NC(=O)NC2CCN(C)CC2)CN(c2ccc(C(F)(F)F)c3ncccc23)C1 [Example 147, 1-(1-Methyl-piperidin-4-yl)-3-[(3R,5S)-5-methyl-1-(8-trifluoromethyl-quinolin-5-yl)-piperidin-3-yl]-urea]"
75 to 150,< 75,"C[C@H]1C[C@@H](NC(=O)CC2CCN(CCO)CC2F)CN(c2cnc(C#N)c3ncccc23)C1 (stereo partly drawn) [Example 148, N-[(3R,5S)-1-(8-Cyano-[1,7]naphthyridin-5-yl)-5-methyl-piperidin-3-yl]-2-[3-fluoro-1-(2-hydroxy-ethyl)-piperidin-4-yl]-acetamide]"
> 150,75 to 150,"C[C@H]1C[C@@H](NC(=O)CC2CCN(C(=O)NC(C)(C)CO)CC2F)CN(c2cnc(C#N)c3ncccc23)C1 (stereo partly drawn) [Example 149, 4-{[(3R,5S)-1-(8-Cyano-[1,7]naphthyridin-5-yl)-5-methyl-piperidin-3-ylcarbamoyl]-methyl}-3-fluoro-piperidine-1-carboxylic acid (2-hydroxy-1,1-dimethyl-ethyl)-amide]"
< 75,< 75,"COc1ncc(N2C[C@@H](C)C[C@@H](N)C2)c2cccnc12 [Example 151, (3R,5S)-1-(8-Methoxy-[1,7]naphthyridin-5-yl)-5-methyl-piperidin-3-ylamine]"
> 150,< 75,"C[C@H]1C[C@@H](n2ccnc2)CN(c2ccc(C(F)(F)F)c3nccnc23)C1 [Example 157, 5-[(3R,5S)-3-(1H-imidazol-1-yl)-5-methylpiperidin-1-yl]-8-(trifluoromethyl)quinoxaline]"
